Like-named read-outs stand apart in the source and are kept apart here.
Experiments:
[1] = type: in vivo, human; conditions: 6-week treatment period
[2] = test system: patients with T2D and established CVD; type: in vivo, human
HFD-fed C57BL/6J mice = type: in vivo, mouse; conditions: 8 weeks
[3] = test system: participants with type 2 diabetes; type: in vivo, human; conditions: 32 weeks
HHTg-OVX rats = type: in vivo, rat; conditions: 12.5 μg/kg b.wt./day s.c., 12 weeks
db/db mice = type: in vivo, mouse
human islets = type: cell-based
[4] = test system: patients with type 2 diabetes; type: in vivo, human; conditions: Ipr 50 mg or Met 1000 mg, 24 weeks, n=15 per group
human β-cells = type: cell-based
perifused human islets = type: cell-based
HUVECs = type: cell-based, human
patients with T2D and HF = type: in vivo, human
HHTg rats = type: in vivo, rat; conditions: 10 mg/kg/day, 8 weeks
patients with T2D = type: in vivo, human
[5] = test system: patients with T2D and metabolic syndrome; parameters: species or system human; conditions: in vivo
[6] = type: in vivo, mice; conditions: 40 mg/kg
patients with T2DM = type: in vivo, human
[7] = test system: male C57BL/6 mice on 45% HFD; conditions: mouse, in vivo
isolated human islets = type: cell-based; conditions: metformin added after 0.5 day, n=7
EndocBH5 = type: cell-based, human; conditions: 96 well plates
[8] = test system: adults with type 2 diabetes; type: in vivo, human
HCAECs = type: cell-based, human
[9] = test system: cultured subcutaneous adipocytes; type: cell-based; conditions: preliminary data
[10] = test system: isolated mouse skeletal muscle (EDL and soleus); type: cell-based; conditions: [14C]-glucose, n=7-8
mice = type: in vivo, mouse; conditions: acute administration, n=7-8
[11] = test system: thromboxane receptor, primary human myotubes; type: cell-based
cultured human podocytes = type: cell-based
[12] = parameters: species or system human; conditions: in vivo
[13] = test system: isolated human adipocytes; type: cell-based; conditions: recombinant protein
LADA individuals [14] = conditions: corresponding findings in type 1 diabetes (n=56), ref not given, cited from earlier work
LADA individuals [15] = conditions: for GAD65 stimulation index of PBMC proliferation: LADA, median (Q1, Q3)
[16] = test system: people with type 2 diabetes; type: in vivo, human; conditions: 15 mg, 28 weeks

With CCOc1ccc(Cc2cc([C@@H]3O[C@H](CO)[C@@H](O)[C@H](O)[C@H]3O)ccc2Cl)cc1 [DAPA, dapagliflozin] the “fractional renal extraction of glucose” value (T2DM and NGT subjects; NGT) was 1.62± 1.4, the renal glucose uptake (T2DM and NGT subjects; NGT) was 0.27 ± 0.08 mg/kg.min and the “fractional renal extraction of glucose” value (T2DM and NGT subjects; T2DM) was 2.99±1.0. For the same molecule, the renal glucose uptake (T2DM and NGT subjects; T2DM) was 0.347 ± 0.06 mg/kg.min and the mild hypoglycemia occurrence [1] was “once”.

With OC[C@H]1O[C@@H](c2ccc(Cl)c(Cc3ccc(O[C@H]4CCOC4)cc3)c2)[C@H](O)[C@@H](O)[C@@H]1O [EMPA, Empagliflozin] the “OR (95% CI) for improved risk vs placebo” value ([2]; all baseline groups) was 1.56 (1.30, 1.86), the “OR (95% CI) for worsening risk vs placebo” value ([2]; all baseline groups) was 0.70 (0.62, 0.78) and the final body weight (HFD-fed C57BL/6J mice; 10 mg/kg/day oral gavage, HFD) was 44.87 ± 1.42 g. The FFA (HFD-fed C57BL/6J mice; 10 mg/kg/day) was 746.30 ± 56.59 µmol/L, the UACR (HFD-fed C57BL/6J mice; 10 mg/kg/day) was 21.01 ± 1.99 µg/µmol and the fat mass (HFD-fed C57BL/6J mice; 10 mg/kg/day) was 11.75 ± 0.78 g. For the same molecule, the fat/weight (HFD-fed C57BL/6J mice; 10 mg/kg/day) was 26.08 ± 1.09%, the triglyceride (HFD-fed C57BL/6J mice; 10 mg/kg/day) was 29.31 ± 2.71 mg/dL and the “change in GFR from baseline and compared to placebo” value [3] was -18 mL/min.

In the case of C[C@]12CC[C@@H]3c4ccc(O)cc4CC[C@H]3[C@@H]1CC[C@@H]2O [Estradiol, 17-β estradiol], the “change in ectopic TAG deposition, kidneys” value (HHTg-OVX rats) is reported as -23% and the “change in ectopic TAG deposition, liver” value (HHTg-OVX rats) is reported as -16%.

In the case of C[C@H]1N=C(N(C)C)N=C(N)N1 [Imeglimin], the “random blood glucose levels vs vehicle” value (db/db mice; 150 mg/kg B.I.D. oral, age 6-10 weeks) is reported as “significantly lower” and the “loss of RI intensity in the pancreas (SPECT/CT)” value (db/db mice; at 10 weeks) is reported as “significantly attenuated”.

With CN(C)C(=N)N=C(N)N [Met, Metformin] the “caspase 3/7 activity” value (human islets; cytokines 48 h plus 2.4 μg/ml) was 1.2±0.1, the insulin stimulation index (human islets; cytokines (IL-1β 50 U/ml + IFN-γ 1000 U/ml) 48 h plus 2.4 μg/ml, mean±SEM) was 4.7±1.6 and the “change in visceral fat area” value [4] was -4.7%.

In the case of NC(=O)N1c2ccccc2C=Cc2ccccc21 [carbamazepine], the “cytokine- and ER stress-induced β-cell death” value (human β-cells) is reported as “protected” and the glucose-stimulated insulin secretion (perifused human islets) is reported as “moderately reduced”.

With OC[C@H]1O[C@@H](c2ccc(Cl)c(Cc3ccc(O[C@H]4CCOC4)cc3)c2)[C@H](O)[C@@H](O)[C@@H]1O [empagliflozin] the “patients with improvement in KDIGO CKD risk” value (“patients with improvement” below) ([2]; high baseline risk group) was 27.1%, the “patients with worsening KDIGO CKD risk” value ([2]; high risk baseline group) was 23.3% and the “patients with worsening KDIGO CKD risk” value ([2]; low risk baseline group, 10, 25 mg pooled) was 26.0%. The “patients with improvement” value ([2]; moderate baseline risk group) was 24.6%, the “patients with worsening KDIGO CKD risk” value ([2]; moderate risk baseline group) was 24.4% and the “patients with improvement” value ([2]; very high baseline risk group) was 26.2%. The “expression of inflammatory markers” value (HUVECs) was “did not significantly impact”, the “reduction of KIM-1 levels compared to placebo” value (patients with T2D and HF; 25 mg, week 48, EFFORT-2) was 38% and the “LVEDD difference from placebo” value (patients with T2D and HF; week 24, EFFORT-1) was -7.88. The “LVEDD difference from placebo” value (patients with T2D and HF; week 48, EFFORT-1) was -4.40, the “posterior wall diameter difference from placebo” value (patients with T2D and HF; week 48, EFFORT-2) was -2.29 and the “non-fasting glucose and insulin” value (HHTg rats) was “markedly decreased”. The serum triglycerides levels (HHTg rats) was “reduced”, the “∆LVEF Rest, E vs I” value (patients with T2D; cardiac MRI) was -0±2% and the “∆LVEF Rest, treatment vs washout” value (patients with T2D; cardiac MRI) was 2 ±1%. For the same molecule, the “∆LVPFR Rest, E vs I” value (patients with T2D; cardiac MRI) was -55 ± 19 mL/s, the “∆LVPFR Rest, treatment vs washout” value (patients with T2D; cardiac MRI) was -38 ± 19 mL/s and the “∆LVEF Stress, E vs I” value (patients with T2D; chronotropic stress) was 1±1%. For the same molecule, the “∆LVEF Stress, treatment vs washout” value (patients with T2D; chronotropic stress) was -1±2%, the “∆LVPFR Stress, E vs I” value (patients with T2D; chronotropic stress) was -11 ± 47 mL/s and the “∆LVPFR Stress, treatment vs washout” value (patients with T2D; chronotropic stress) was -4 ± 45 mL/s. For the same molecule, the 3-OH butyrate (patients with T2D; fasting, end of 5 weeks) was 0.27 ± 0.03 mM, the FFAs (patients with T2D; fasting, end of 5 weeks) was 0.60 ± 0.03 mM and the serum insulin (patients with T2D; fasting, end of 5 weeks) was 103 ± 14 pM.

For CC(C)OC(=O)C(C)(C)Oc1ccc(C(=O)c2ccc(Cl)cc2)cc1 [fenofibrate], the “HR for primary outcome, patients with retinopathy at baseline” value [5] was 0.86.

In the case of Cc1ccc(S(=O)(=O)NC(=O)NN2CC3CCCC3C2)cc1 (stereo not drawn) [gliclazide], the “insulin secretion after the OGTT” value [6] is reported as “increased”, the “incidence of severe hypoglycaemia” value (patients with T2DM; female) is reported as 0.75 %/year and the “incidence of severe hypoglycaemia” value (patients with T2DM; male) is reported as 0.41 %/year.

In the case of CN(C)C(=N)N=C(N)N [metformin], the “loss of excess body weight vs untreated mice” value [7] is reported as 30% and the “reduction of insulin secretion vs 1 day palmitate only” value (isolated human islets) is reported as 18%.

For CC[C@H](C)[C@H](NC(=O)[C@H](CC(C)C)NC(=O)[C@H](Cc1c[nH]c2ccccc12)NC(=O)[C@H](CCC(N)=O)NC(=O)[C@@H](NC(=O)[C@H](Cc1ccccc1)NC(=O)[C@H](C)NC(=O)[C@H](CCCCNC(=O)COCCOCCNC(=O)COCCOCCNC(=O)CC[C@H](NC(=O)CCCCCCCCCCCCCCCCCCC(=O)O)C(=O)O)NC(=O)[C@H](CCC(N)=O)NC(=O)[C@H](C)NC(=O)[C@@H](NC(=O)[C@H](CCCCN)NC(=O)[C@H](CC(=O)O)NC(=O)[C@H](CC(C)C)NC(=O)C(C)(C)NC(=O)[C@@H](NC(=O)[C@H](CO)NC(=O)[C@H](Cc1ccc(O)cc1)NC(=O)[C@H](CC(=O)O)NC(=O)[C@H](CO)NC(=O)[C@@H](NC(=O)[C@H](Cc1ccccc1)NC(=O)[C@@H](NC(=O)CNC(=O)[C@H](CCC(=O)O)NC(=O)C(C)(C)NC(=O)[C@@H](N)Cc1ccc(O)cc1)[C@@H](C)O)[C@@H](C)O)[C@@H](C)CC)[C@@H](C)CC)C(C)C)C(=O)N[C@@H](C)C(=O)NCC(=O)NCC(=O)N1CCC[C@H]1C(=O)N[C@@H](CO)C(=O)N[C@@H](CO)C(=O)NCC(=O)N[C@@H](C)C(=O)N1CCC[C@H]1C(=O)N1CCC[C@H]1C(=O)N1CCC[C@H]1C(=O)N[C@@H](CO)C(N)=O [tirzepatide], the “increased insulin secretion over high glucose” value (EndocBH5) was > 3 fold, the “MD in triglycerides vs GLP-1 receptor agonists” value ([8]; 5 mg once weekly, random effects) was -12.51 mg/dL and the “MD in triglycerides vs GLP-1 receptor agonists” value ([8]; 15 mg once weekly) was -24.98 mg/dL.

For COc1ccc(C(=O)O[C@H]2CC[C@@]3(C)[C@@H]4CC[C@H]5[C@]6(O)C[C@H](O)[C@@]7(O)[C@@H](CN8C[C@@H](C)CC[C@H]8[C@@]7(C)O)[C@]6(O)C[C@@]53O[C@]24O)cc1OC [veratridine], the “cytokine- and ER stress-induced β-cell death” value (human β-cells) was “increased cell death” and the glucose-stimulated insulin secretion (perifused human islets) was “increased insulin secretion”.

In the case of CCL5, the endothelial function (HCAECs) is reported as “displayed endothelial dysfunction”.

In the case of Fas ligand [FasL], the “isoproterenol-induced UCP1 protein levels” value [9] is reported as “decreased”.

In the case of I-BOP, the “increase in ex-vivo skeletal muscle glucose oxidation” value [10] is reported as “+118%”, the “change in glucose tolerance AUC” value (mice) is reported as -34% and the “increase in glucose incorporation into glycogen” value ([11]; n=4) is reported as “+398%”. For the same molecule, the “increase in glucose oxidation” value ([11]; n=5) was “+28%” and the “increase in glucose uptake” value ([11]; n=5) was “+53%”.

For TGF-β, the “suppression of Tcf21 expression” value (cultured human podocytes) was 58%.

With insulin glargine 300 U/mL [Gla-300] the “Rates of hypoglycaemia at <3.9 to ≥3.0 mmol/L and <3.0 mmol/L” value [12] was “did not differ between groups”.

In the case of oncostatin-M, the “stimulation of basal lipolysis” value [13] is reported as “+47%”.

For rhGAD65, the “GAD65 stimulation index of PBMC proliferation” value (“GAD65 stimulation index” for short) (LADA individuals [14]; 2 months) is given as 2.77 (1.96, 6.05), the “GAD65 stimulation index” value (LADA individuals [14]; 5 months) is given as 3.19 (2.02, 6.19) and the “GAD65 stimulation index” value (LADA individuals [15]; 2 months from baseline, 3 injections of 4 μg) is given as 2.16 (1.25, 3.06). For the same molecule, the “GAD65 stimulation index” value (LADA individuals [15]; 5 months from baseline) was 2.34 (1.81, 3.58), the “postprandial 2 hour C-peptide” value (LADA individuals [15]; in vivo) was 1.45 (1.25, 1.85) nmol/L and the serious adverse events (LADA individuals [15]; interim analysis at 5 months) was “no treatment-related serious adverse events”.

With tirzepatide [TZP] the “insulin sensitivity (M-value), first and second phase ISR and beta-cell glucose sensitivity during EGC and HGC” value [16] was “more than SEMA and placebo”.

Source: article PMC9362525 (Diabetologia, 2022)
